Results as given in patent publication US5529998A, “Benzoxazolyl- and benzothiazolyloxazolidinones” (Bayer Aktiengesellschaft, priority 1994, dated 1996).
In brackets after ≈: the same amount, converted by molar mass.

How the values were obtained:
Test in all cases: MIC, antibacterial activity (series dilution)
Assay type in all cases: cell-based
E. coli Neumann = settings: Escherichia coli, 37° C., about 20 hours
Experimental: (§1) The MIC values were determined with the aid of the microdilution method in BH medium. Each test substance was dissolved in the nutrient medium. A concentration series of the test substances was prepared in the microtiter plate by serial dilution. Overnight cultures of the pathogens, which were first diluted 1:250 in the nutrient medium, were used for the inoculation. 100 μl portions of inoculation solution were added to 100 μl of the dilute nutrient solutions containing the active compound. The microtiter plates were incubated at 37° C. and read off after about 20 hours. The MIC value (μg/ml) indicates the lowest concentration of active compound at which no growth was detectable. The minimum inhibitory concentrations (MIC) were determined by the series dilution method on Iso-Sensitest agar (Oxoid). A series of agar plates which contained concentrations of the active compound which decreased by two-fold dilution each time was prepared for each test substance. The agar plates were inoculated with a multipoint inoculator (Denley). Overnight cultures of the pathogens which had been diluted beforehand such that each inoculation point contained about 10^4 colony-forming particles were used for the inoculation. The inoculated agar plates were incubated at 37° C. and the germ growth was read off up to about 20 hours. The MIC value (μg/ml) indicates the lowest concentration of active compound at which no growth was detectable with the naked eye.

Staph 25701 = settings: 37° C., about 20 hours
Experimental: as §1

Psdm. Bonn = settings: 37° C., about 20 hours
Experimental: as §1

Staph. 133 = settings: 37° C., about 20 hours
Experimental: as §1

Staph. 48N = settings: 37° C., about 20 hours
Experimental: as §1

Klebs. 57 USA = settings: 37° C., about 20 hours
Experimental: as §1

Staph. 9TV = settings: 37° C., about 20 hours
Experimental: as §1

| SMILES | MIC (E. coli Neumann) [µg/mL] | MIC (Staph 25701) [µg/mL] | MIC (Psdm. Bonn) [µg/mL] | MIC (Staph. 133) [µg/mL] | MIC (Staph. 48N) [µg/mL] | MIC (Klebs. 57 USA) [µg/mL] | MIC (Staph. 9TV) [µg/mL] |
| --- | --- | --- | --- | --- | --- | --- | --- |
| CC(=O)NC[C@H]1CN(c2ccc3nc(C)oc3c2)C(=O)O1 [Example 25, (5S)-3-(2-Methyl-benzo[4,5-d]oxazol-6-yl)-5-acetamino-methyl-oxazolidin-2-one] | > 64 | 1 (≈ 3.46 µM) | > 64 | 2 (≈ 6.91 µM) | 1 (≈ 3.46 µM) | > 64 | 1 (≈ 3.46 µM) |
| CC(=O)NC[C@H]1CN(c2ccc3nc([S+](C)[O-])sc3c2)C(=O)O1 (stereo partly drawn) [Example 32, (5S)-3-(2-Methylsulphinyl-benzo[4,5-d]-thiazol-6-yl)-5-acetylaminomethyl-oxazolidin-2-one] | > 64 | 1 (≈ 2.83 µM) | > 64 | 1 (≈ 2.83 µM) | 2 (≈ 5.66 µM) | > 64 | 0.5 (≈ 1.41 µM) |
| CSc1nc2ccc(N3C[C@H](CNC(C)=O)OC3=O)cc2s1 [Example 24, (5S )-3-(2-Methylthio-benzo[4,5-d]thiazol-6-yl)-5-acetylaminomethyl-oxazolidin-2-one] | > 64 | 0.25 (≈ 0.741 µM) | > 64 | 2 (≈ 5.93 µM) | 1 (≈ 2.96 µM) | > 64 | 0.25 (≈ 0.741 µM) |
| CC(=O)NC[C@H]1CN(c2ccc3nc(S(=O)(=O)Cc4ccccc4)sc3c2)C(=O)O1 [Example 33, (5S)-3-(2-Benzylsulphonyl-benzo[4,5-d]thiazol-6-yl)-5-acetylaminomethyloxazolidin-2-one] | > 64 | 2 (≈ 4.49 µM) | > 64 | 4 (≈ 8.98 µM) | 2 (≈ 4.49 µM) | > 64 | 4 (≈ 8.98 µM) |
| CC(=O)NC[C@H]1CN(c2ccc3nc(C)sc3c2)C(=O)O1 [Example 26] | > 64 | 1 (≈ 3.27 µM) | > 64 | 2 (≈ 6.55 µM) | 1 (≈ 3.27 µM) | > 64 | 1 (≈ 3.27 µM) |
| CC(=O)NC[C@H]1CN(c2ccc3nc(S(C)(=O)=O)sc3c2)C(=O)O1 [Example 37] | > 64 | 1 (≈ 2.71 µM) | > 64 | 2 (≈ 5.41 µM) | 2 (≈ 5.41 µM) | > 64 | 1 (≈ 2.71 µM) |
| CC(=O)NC[C@H]1CN(c2ccc3nc([S+]([O-])Cc4ccccc4)sc3c2)C(=O)O1 (stereo partly shown) [Example 36] | > 64 | 4 (≈ 9.31 µM) | > 64 | 4 (≈ 9.31 µM) | 4 (≈ 9.31 µM) | > 64 | 2 (≈ 4.66 µM) |
